According to ChEMBL document CHEMBL3885881, “DrugMatrix”:

Organism: Rattus norvegicus
Assay: DrugMatrix - Regimen: Daily Repeat
Format: toxicity, organism-based, Sprague-Dawley
Parameters: regimen Daily Repeat, gender Male, age 6-8 weeks
Settings: in vivo, po, 0 mg/kg, route oral GAVAGE, dose level Control, vehicle 100 % SALINE; for ABSOLUTE BASOPHIL / ABSOLUTE EOSINOPHIL / ABSOLUTE LYMPHOCYTE / ABSOLUTE MONOCYTE / ABSOLUTE SEGMENTED NEUTROPHIL / BASOPHIL / EOSINOPHIL / ERYTHROCYTE COUNT / HEMATOCRIT / HEMOGLOBIN / LEUKOCYTE COUNT / LYMPHOCYTE / MEAN CORPUSCULAR HEMOGLOBIN / MEAN CORPUSCULAR HEMOGLOBIN CONCENTRATION / MEAN CORPUSCULAR VOLUME / MONOCYTE / NEUTROPHIL / NUCLEATED RED BLOOD CELLS / PLATELET COUNT: tissue Blood; for ALANINE AMINOTRANSFERASE / ALBUMIN / ALKALINE PHOSPHATASE / ASPARTATE AMINOTRANSFERASE / BLOOD UREA NITROGEN / CARBON DIOXIDE / CHLORIDE / CHOLESTEROL / CREATINE PHOSPHOKINASE / CREATININE / GLUCOSE / LACTATE DEHYDROGENASE / LIPASE / PHOSPHORUS / POTASSIUM / SODIUM / TOTAL BILIRUBIN / TOTAL PROTEIN / URIC ACID: tissue Plasma

`O=P1(NCCCl)OCCCN1CCCl` (stereo unspecified) [IFOSFAMIDE] was tested, and the “ABSOLUTE BASOPHIL” value (72 h, time 3 day) was 0 CELLS/uL, the “ABSOLUTE EOSINOPHIL” value (72 h, time 3 day) was 0 CELLS/uL and the “ABSOLUTE LYMPHOCYTE” value (72 h, time 3 day) was 8960.83 CELLS/uL. For the same molecule, the “ABSOLUTE MONOCYTE” value (72 h, time 3 day) was 103.5 CELLS/uL, the “ABSOLUTE SEGMENTED NEUTROPHIL” value (72 h, time 3 day) was 635.67 CELLS/uL and the BASOPHIL (72 h, time 3 day) was 0%. The EOSINOPHIL (72 h, time 3 day) was 0%, the “ERYTHROCYTE COUNT” value (72 h, time 3 day) was 5.09 x10E6/uL and the HEMATOCRIT (72 h, time 3 day) was 31.8%. The HEMOGLOBIN (72 h, time 3 day) was 12.42 G/DL, the “LEUKOCYTE COUNT” value (72 h, time 3 day) was 9.7 x10E3/uL and the LYMPHOCYTE (72 h, time 3 day) was 92.33%. For the same molecule, the “MEAN CORPUSCULAR HEMOGLOBIN” value (72 h, time 3 day) was 24.4 pg, the “MEAN CORPUSCULAR HEMOGLOBIN CONCENTRATION” value (72 h, time 3 day) was 39.07 G/DL and the “MEAN CORPUSCULAR VOLUME” value (72 h, time 3 day) was 62.47 fL. The MONOCYTE (72 h, time 3 day) was 1%, the NEUTROPHIL (72 h, time 3 day) was 6.67% and the “NUCLEATED RED BLOOD CELLS” value (72 h, time 3 day) was 0 /100WBC. For the same molecule, the “PLATELET COUNT” value (72 h, time 3 day) was 466.5 x10E3/uL, the “ALANINE AMINOTRANSFERASE” value (72 h, time 3 day) was 83.33 u/L and the ALBUMIN (72 h, time 3 day) was 4.33 G/DL. The “ALKALINE PHOSPHATASE” value (72 h, time 3 day) was 340.5 u/L, the “ASPARTATE AMINOTRANSFERASE” value (72 h, time 3 day) was 189.83 u/L and the “BLOOD UREA NITROGEN” value (72 h, time 3 day) was 15.83 mg/dL. For the same molecule, the “CARBON DIOXIDE” value (72 h, time 3 day) was 38 mmol/L, the CHLORIDE (72 h, time 3 day) was 96.83 MEQ/L and the CHOLESTEROL (72 h, time 3 day) was 72.5 mg/dL. For the same molecule, the “CREATINE PHOSPHOKINASE” value (72 h, time 3 day) was 370.67 u/L, the CREATININE (72 h, time 3 day) was 0.28 mg/dL and the GLUCOSE (72 h, time 3 day) was 182.83 mg/dL. The “LACTATE DEHYDROGENASE” value (72 h, time 3 day) was 513.5 u/L, the LIPASE (72 h, time 3 day) was 9.83 u/L and the PHOSPHORUS (72 h, time 3 day) was 11.32 mg/dL. For the same molecule, the POTASSIUM (72 h, time 3 day) was 6.32 MEQ/L, the SODIUM (72 h, time 3 day) was 145.12 MEQ/L and the “TOTAL BILIRUBIN” value (72 h, time 3 day) was 0.2 mg/dL. The “TOTAL PROTEIN” value (72 h, time 3 day) was 6.4 G/DL, the “URIC ACID” value (72 h, time 3 day) was 2.03 mg/dL and the “ABSOLUTE BASOPHIL” value (120 h, time 5 day) was 0 CELLS/uL. The “ABSOLUTE EOSINOPHIL” value (120 h, time 5 day) was 43.83 CELLS/uL, the “ABSOLUTE LYMPHOCYTE” value (120 h, time 5 day) was 7316.67 CELLS/uL and the “ABSOLUTE MONOCYTE” value (120 h, time 5 day) was 87.33 CELLS/uL. The “ABSOLUTE SEGMENTED NEUTROPHIL” value (120 h, time 5 day) was 418.83 CELLS/uL, the BASOPHIL (120 h, time 5 day) was 0% and the EOSINOPHIL (120 h, time 5 day) was 0.33%. The “ERYTHROCYTE COUNT” value (120 h, time 5 day) was 4.77 x10E6/uL, the HEMATOCRIT (120 h, time 5 day) was 29.93% and the HEMOGLOBIN (120 h, time 5 day) was 11.48 G/DL. For the same molecule, the “LEUKOCYTE COUNT” value (120 h, time 5 day) was 7.87 x10E3/uL, the LYMPHOCYTE (120 h, time 5 day) was 93.5% and the “MEAN CORPUSCULAR HEMOGLOBIN” value (120 h, time 5 day) was 24.17 pg. The “MEAN CORPUSCULAR HEMOGLOBIN CONCENTRATION” value (120 h, time 5 day) was 38.57 G/DL, the “MEAN CORPUSCULAR VOLUME” value (120 h, time 5 day) was 62.68 fL and the MONOCYTE (120 h, time 5 day) was 1%. For the same molecule, the NEUTROPHIL (120 h, time 5 day) was 5.17%, the “NUCLEATED RED BLOOD CELLS” value (120 h, time 5 day) was 0 /100WBC and the “PLATELET COUNT” value (120 h, time 5 day) was 377.67 x10E3/uL. For the same molecule, the “ALANINE AMINOTRANSFERASE” value (120 h, time 5 day) was 89 u/L, the ALBUMIN (120 h, time 5 day) was 4.42 G/DL and the “ALKALINE PHOSPHATASE” value (120 h, time 5 day) was 275.17 u/L. The “ASPARTATE AMINOTRANSFERASE” value (120 h, time 5 day) was 204.17 u/L, the “BLOOD UREA NITROGEN” value (120 h, time 5 day) was 15.33 mg/dL and the “CARBON DIOXIDE” value (120 h, time 5 day) was 36.83 mmol/L. The CHLORIDE (120 h, time 5 day) was 94.67 MEQ/L, the CHOLESTEROL (120 h, time 5 day) was 92 mg/dL and the “CREATINE PHOSPHOKINASE” value (120 h, time 5 day) was 514.5 u/L. For the same molecule, the CREATININE (120 h, time 5 day) was 0.24 mg/dL, the GLUCOSE (120 h, time 5 day) was 184.17 mg/dL and the “LACTATE DEHYDROGENASE” value (120 h, time 5 day) was 648.67 u/L. For the same molecule, the LIPASE (120 h, time 5 day) was 10 u/L, the PHOSPHORUS (120 h, time 5 day) was 12.33 mg/dL and the POTASSIUM (120 h, time 5 day) was 6.51 MEQ/L. The SODIUM (120 h, time 5 day) was 144.63 MEQ/L, the “TOTAL BILIRUBIN” value (120 h, time 5 day) was 0.18 mg/dL and the “TOTAL PROTEIN” value (120 h, time 5 day) was 6.7 G/DL. For the same molecule, the “URIC ACID” value (120 h, time 5 day) was 2.33 mg/dL.
